{"source": "patent US20080267981A1", "about": "“Compositions and Methods for Delivery of Antitumor Agents” (The Scripps Research Institute, priority 2004, published 2008)", "key": {"HdFa cells": {"system": "HdFa cells", "assay": "MTT cell proliferation assay on normal HdFa cells", "format": "cell-based, human", "details": "normal HdFa cells versus SW1990 cancer cells", "method": "Cell proliferation assay. The cytotoxicity of scFv-drug or free drug was quantified by using the Vybrant MTT cell proliferation assay kit (Molecular Probes). Assays were performed using 48-well microtiter plates containing 2×10^4 SW1990 (HdFa) cells/well in 300 μL of phenol-free growth medium. Cells were allowed to attach to the wells for 12 hours. For determination of IC50, cells were incubated for 3 or 12 h at 37° C. with various concentrations of Pan10-drug conjugates, maleimide derivatives or free drugs. Then the incubation was continued in conjugate/drug-free medium and the MTT assay was performed at the end of the seventh day. Medium was replaced with 100 μL of fresh medium containing 1.2 mM MTT and the incubation continued for three more hours. The cells were then lysed by adding 100 μL of a 10 mM solution of HCL containing SDS (100 mg/mL). The cell lysis was allowed to proceed for a period of 8 hours at the end of which the plate was centrifuged at 3000 rpm for 3 min and the supernatant transferred in a 96-well plate and read at 570 nm. Each assay included a […]. All assays were performed at least twice. A set of 8 data points was obtained with various concentration of cytotoxicity agent. […]"}, "[1]": {"details": "Parrish et al. 2003; different cell line, exposure time and cytotoxicity assay; read-out: IC50, previously obtained values; cited from earlier work"}, "SW1990 cells": {"system": "SW1990 cells", "assay": "MTT cell proliferation assay on SW1990 cells", "format": "cell-based", "details": "Homo sapiens", "method": "Cell proliferation assay. The cytotoxicity of scFv-drug or free drug was quantified by using the Vybrant MTT cell proliferation assay kit (Molecular Probes). Assays were performed using 48-well microtiter plates containing 2×10^4 SW1990 (HdFa) cells/well in 300 μL of phenol-free growth medium. Cells were allowed to attach to the wells for 12 hours. For determination of IC50, cells were incubated for 3 or 12 h at 37° C. with various concentrations of Pan10-drug conjugates, maleimide derivatives or free drugs. Then the incubation was continued in conjugate/drug-free medium and the MTT assay was performed at the end of the seventh day. Medium was replaced with 100 μL of fresh medium containing 1.2 mM MTT and the incubation continued for three more hours. The cells were then lysed by adding 100 μL of a 10 mM solution of HCL containing SDS (100 mg/mL). The cell lysis was allowed to proceed for a period of 8 hours at the end of which the plate was centrifuged at 3000 rpm for 3 min and the supernatant transferred in a 96-well plate and read at 570 nm. Each assay included a […]. All assays were performed at least twice. A set of 8 data points was obtained with various concentration of cytotoxicity agent. In order to obtain the IC50 values, data points from each set were fit to the sigmoidal dose-response curve defined by Equation 3 using Grafit5 (Leatherbarrow R. J. 2003. Grafit version 5.08, Erithieus Software Ltd, Staines, England).\ny^a=min y+[(max y−min y)/(1+(IC50/x^b)^slope)] (Equation 3)\n^bx=concentration of drug (drug-scF)\nData points which were outliers (typically 1-2 per experiment) were discarded.\nSW1990 cells treated with Pan10, Pan10-FM, Pan10-3 or Pan10-4 were examined by inverted microscopy for a qualitative determination of the effect of the drug conjugates on the cell viability. […] The cytotoxic effect of the Pan10-drug conjugates in comparison with the toxicity of the free drugs was then quantified by the MTT (3-(4,5-dimethylthiazol-2-yl)-2,5,-diphenyltetrazolium bromide) cell-proliferation assay. Liu et al., J Neurochem, 69: 581-593, 1997; Berridge et al., Arch Biochem Biophys, 303: 474-482, 1993; Vistica et al., Cancer Res, 51: 2515-2520, 1991. SW1990 pancreatic carcinoma cells were seeded and allowed to attach in growth medium overnight. The cultures were then treated for either 3 or 12 h with increasing concentrations of free drugs or Pan10-drug conjugates."}}}
{"smiles": "CC(=O)c1ccc2[nH]c(C(=O)N3C[C@@H](CCl)c4c3cc(O)c3ccccc43)cc2c1", "note": "[compound 1, 3-(5-acetylindole-2-carbonyl)-1-(S)-(chloromethyl)-5-hydroxy-1,2-dihydro-3H-benz[e]indole]", "values": [{"measurement": "IC50 on HdFa cells relative to IC50 against SW1990 cells", "setting": "HdFa cells", "value": "roughly the same IC50 values against both cells lines"}, {"measurement": "IC50", "setting": "[1]", "value": 0.002, "unit": "nM"}, {"measurement": "IC50", "setting": "SW1990 cells; SW1990, 3 h", "value": "1.4 ± 0.2", "unit": "nM"}, {"measurement": "IC50", "setting": "SW1990 cells; SW1990, 12 h", "value": "0.43 ± 0.17", "unit": "nM"}]}
{"smiles": "NCCCn1c(C(=O)Nc2ccc3[nH]c(C(=O)N4CC(CCl)c5c4cc(O)c4ccccc54)cc3c2)cc2ccccc21", "note": "(stereo not shown) [compound 2, 3-[5-(1-(3-aminopropyl)indole-2-carbonyl)aminoindole-2-carbonyl]-1-(chloromethyl)-5-hydroxy-1,2-dihydro-3H-benz[e]indole]", "values": [{"measurement": "IC50", "setting": "[1]", "value": 0.03, "unit": "nM"}, {"measurement": "IC50", "setting": "SW1990 cells; SW1990, 3 h", "value": "32.1 ± 13.1", "unit": "nM"}, {"measurement": "IC50", "setting": "SW1990 cells; SW1990, 12 h", "value": "4.3 ± 0.2", "unit": "nM"}]}
